Series [1] addresses human 5-HT2A (h5-HT2A) receptor (Homo sapiens (Human), UniProt P28223). The series can be described thus: FLIPR assay, human 5-HT2A receptor under agonist mode. It is filed as cell-based. On the procedure:
I. Assessment of the Activated Effect of Compounds of Formula I Targeting on Human 5-HT2A (h5-HT2A) Receptor Under Agonist Mode
1. Culture the cells in cell culture medium (DMEM containing 10% FBS, 1× penicillin-streptomycin 300 μg/ml G418 and 100 μg/ml hygromycin B) at 37° C., 5% (v/v) CO2.
2. One day before the assays, detach the cell using TrypLE™ Express and count cells using cell counter.
3. Seed 20000 cells/well in 30 μl/well culture medium to a 384-well cell plate and incubate the cells overnight at 37° C., 5% (v/v) C02.
4. On the assay day, prepare 2× dye solution following the manual of the FLIPR® Calcium 6 Assay Kit: i. Dilute the dye with assay buffer (20 mM HEPES in 1×HBSS, PH7.4); ii. Add probenecid to the final concentration of 5 mM; iii. Vortex vigorously for 1-2 minutes.
5. Remove medium from cell plate by flicking the cell plate on towel papers.
6. Add 10 μl of assay buffer and 10 μl of 2× dye solution to each well of the cell plate.
7. Put the cell plate on plate shaker, agitate the plate at 600 rpm for 2 minutes. Incubate the plate at 37° C. for 2 hours followed by additional 15-minute incubation at 25° C.
8. Prepare 3× compound in assay buffer: a. Dilute reference compounds to required concentration with DMSO. Add the compounds to a 384-well compound plate; b. Perform serial dilutions; c. Add 10 mM test compounds to the compound plate, perform 3-fold serial dilutions. d. […] Add 20 μl/well assay buffer to the compound plate; f. Mix the plate on plate shaker for 2 mins;
i. The normalized fluorescence reading (RFU) is calculated as shown follow, while Fmax and Fmin stand for maximum and minimum of calcium signal during defined time window: RFU=Fmax−Fmin
ii. Calculate the percentage activation by using following equation: […]
iii. Calculate EC50 by fitting % activation against log of compound concentrations with Hill equation using XLfit.

In series [2] the target is human 5-HT2A receptor (Homo sapiens (Human), UniProt P28223). Description: Radioligand binding assay ([3H]-ketanserin) on human 5-HT2A receptor. On the procedure:
i. Prepare the assay buffer following the table below;
ii. Preparation of 8 doses of reference and test compounds starting from 10 mM stock solution as requested by 5-fold serial dilutions with 100%;
iii. […] a. Add 50 μl/well of 0.5% (v/v) PEI to UniFilter-96 GF/B plates. Seal the plates and incubate at 4° C. for 3 hrs; b. After incubation, wash the plates 3 times with ice-cold wash buffer (50 mM Tris, pH7.4);
iv. Preparation of assay plates: a. Dilute cell membrane with assay buffer and add 330 μl/well to 96 round deep well plates to reach a concentration of 20 μg/well; b. Prepare 8 concentrations of reference or exemplary compounds of the application and add 110 μl/well to 96 round deep well plates; c. Dilute [3H]-ketanserin with assay buffer to 5 nM (5× final concentration) and add 110 μl/well to 96 round deep well plates.
v. Centrifuge the plate at 1000 rpm for 30 secs and then agitate at 600 rpm, R.T. for 5 min.
vi. Seal the plates and incubate the plate at 27° C. for 90 min.
vii. Stop the incubation by vacuum filtration onto GF/B filter plates followed by 4 times washing with ice-cold wash buffer (50 mM Tris, pH7.4).
ix. Seal the filter plates and add 40 μl/well of scintillation cocktail.
x. Read the plate by using a Microbeta2 microplate counter.
For reference and exemplary test compounds of the application, the results are expressed as % Inhibition, using the normalization equation: N=100−100×(U−C2)/(C1−C2), where U is the unknown value, C1 is the average of high controls, and C2 is the average of low controls. The IC50 is determined by fitting percentage of inhibition as a function of compound concentrations with Hill equation using XLfit.

Series [3] is described as follows: Rat liver microsomes stability with NADPH. On the technique in general: Microsomes from liver hold many membrane-bound enzymes, among them those of drug oxidation.
Series [4] is described as follows: Human liver microsomes stability with NADPH. The procedure: (§1) The objective of this study was to estimate in vitro metabolic stability of 1-45 in pooled human and male mouse liver microsomes. The concentrations of exemplary compounds in reaction systems were evaluated by LC-MS/MS for estimating the stability in pooled human and male mouse liver microsomes. The in vitro intrinsic clearances of test compounds were determined as well.
(§2) A master solution in the “Incubation Plate” containing phosphate buffer, ultra-pure H2O, MgCl2 solution and liver microsomes was made according to Table --. The mixture was pre-warmed at 37° C. water bath for 5 minutes.
(§3) 40 μL of 10 mM NADPH solution was added to each well. The final concentration of NADPH was 1 mM. The negative control samples were prepared by replacing NADPH with 40 μL of ultra-pure H2O. Samples were prepared in duplicate. Negative controls were prepared in singlet.
(§4) The reaction was started with the addition of 4 μL of 200 μM test compounds or control compounds to each master solution to get the final concentration of 2 μM. This study was performed in duplicate.
(§5) Aliquots of 50 μL were taken from the reaction solution at 0, 15, 30, 45 and 60 minutes. The reaction solutions were stopped by the addition of 4 volumes of cold methanol with IS (100 nM alprazolam, 200 nM imipramine, 200 nM labetalol and 2 μM ketoprofen). Samples were centrifuged at 3,220 g for 40 minutes. Aliquot of 90 μL of the supernatant was mixed with 90 μL of ultra-pure H2O and then was used for LC-MS/MS analysis.
(§6) LC/MS analysis was performed for all samples from this study using a Shimadzu liquid chromatograph separation system equipped with degasser DGU-20A5R; solvent delivery unit LC-30AD; system controller SIL-30AC; column oven CTO-30A; CTC Analytics HTC PAL System. Mass spectrometric analysis was performed using an Triple Quad™ 5500 instrument.
(§7) All calculations were carried out using Microsoft Excel. Peak area ratios of test compound to internal standard (listed in the below table) were determined from extracted ion chromatograms.
(§8) All calculations were carried out using Microsoft Excel. Peak areas were determined from extracted ion chromatograms. The slope value, k, was determined by linear regression of the natural logarithm of the remaining percentage of the parent drug vs. incubation time curve.
(§9) Conversion of the in vitro t1/2 (min) into the in vitro intrinsic clearance (in vitro CLint, in μL/min/mg proteins) was done using the following equation (mean of duplicate determinations):
(§10) [formula] […] Results & Discussion

The nature of series [5]: Mouse liver microsomes stability with NADPH. On the procedure: as §1, §2, §3, §4, §5, §6, §7, §8, §9, §10
For series [6] the following is noted: cited from earlier work.

Like-named read-outs stand apart in the source and are kept apart here. Bounds are passed on as bounds.

As a reminder, the EC50 is the concentration giving half of the maximal effect. As a reminder, the IC50 is the concentration needed to halve the response being measured. A low value points to inhibition by little substance. A word on the half-life: it is the time needed for the level to fall by half in the phase considered. A higher half-life goes with slow decline. As usually defined, the microsomal CLint is the capacity of the preparation to metabolise the compound, expressed as a volume cleared per time. A low value points to greater metabolic stability.

As to `[2H]C([2H])([2H])N(C([2H])([2H])[2H])C([2H])([2H])C([2H])([2H])c1c[nH]c2cccc(OP(=O)(O)O)c12` [Compound I-3, 3-(2-(bis(methyl-d3)amino)ethyl-1,1,2,2-d4)-1H-indol-4-yl dihydrogen phosphate], the concentration giving a half-maximal response (EC50) in series [1] was 1000 to 10000 nM. Also, the IC50 in series [2] was 500 to 5000 nM.

`[2H]C([2H])([2H])N(C([2H])([2H])[2H])C([2H])([2H])C([2H])([2H])c1c[nH]c2cccc(F)c12` [Compound I-43, 2-(4-fluoro-1H-indol-3-yl)-N,N-bis(methyl-d3)ethan-1-amine-1,1,2,2-d4] yielded an EC50 in series [1] below 1000 nM. In series [2], this molecule had an IC50 below 500 nM.

Molecule `[2H]C([2H])([2H])N(C([2H])([2H])[2H])C([2H])([2H])C([2H])([2H])c1c[nH]c2cccc(OC)c12` [Compound I-44, 2-(4-methoxy-1H-indol-3-yl)-N,N-bis(methyl-d3)ethan-1-amine-1,1,2,2-d4] registered an EC50 in series [1] below 1000 nM. This molecule showed an IC50 in series [2] below 500 nM.

As to `CN(C)CCc1c[nH]c2cccc(O)c12` [Psilocin, 4-hydroxy-N,N-dimethyltryptamine, reference compound], the “Remaining Percentage (%) after 60 min” value in series [3] (Rat, with NADPH, 2 μM) is recorded as 62.68%; in series [4] (Human, with NADPH, 2 μM), 70.16%; in series [5] (Mouse, with NADPH, 2 μM) it was 96.89%. The half-life at 2 μM in series [3] (rat, microsomes) came to 1.48 h; in series [4] (human, microsomes) it was 1.96 h; in series [5] (male, mouse, microsomes) it was 2.36 h. In addition, the intrinsic metabolic clearance (microsomal CLint) at 2 μM came to 15.6 µL/min/mg in series [3] (rat, microsomes); 11.8 µL/min/mg in series [4] (human, microsomes); 9.78 µL/min/mg in series [5] (male, mouse, microsomes).

For `CN(C)CCc1c[nH]c2cccc(OP(=O)(O)O)c12` [psilocybin, 4-phosphoryloxy-N,N-dimethyltrypatmine], the abstinence rate is listed as 67% in series [6] (12 months follow-up) and 80% in series [6] (six months follow-up).
